# Molecular target: KRas G12D (Homo sapiens (Human), UniProt P01116, G12D)
# Assay: KRas G12D Binding Assay (TR-FRET displacement of Cy5 labelled tracer)
# Details: GDP-loaded KRAS G12D (amino acids 1:169), 60 minute incubation at 22° C.
# Protocol: After a 60 minute incubation at 22° C., the reaction was measured using a PerkinElmer EnVision multimode plate reader via TR-FRET dual wavelength detection, and the percent of control (POC) calculated using a ratiometric emission factor. […] The POC values were fit to a 4-parameter logistic curve and the IC50 value was determined as the concentration where the curve crosses 50 POC.
# ND stands for “not determined.”
# Sequence of KRas G12D (P01116 other isoform, or with tags, fused parts or gaps G12D): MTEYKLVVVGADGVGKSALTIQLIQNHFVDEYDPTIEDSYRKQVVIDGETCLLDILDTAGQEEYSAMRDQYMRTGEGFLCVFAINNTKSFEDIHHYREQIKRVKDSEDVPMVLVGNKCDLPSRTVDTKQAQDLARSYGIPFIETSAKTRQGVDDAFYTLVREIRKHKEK
row,Structure (SMILES),IC50
1,"Cc1c(Cl)cc2[nH]ncc2c1-c1ncc2c(N3CC4CCC(C3)N4)nc(OC[C@@]34CCCN3C[C@H](F)C4)nc2c1F (stereo in doubt) [Example 401, 4-((1R,5S)-3,8-diazabicyclo[3.2.1]octan-3-yl)-7-(6-chloro-5-methyl-1H-indazol-4-yl)-8-fluoro-2-((2-fluorotetrahydro-1H-pyrrolizin-7a(5H)-yl)methoxy)pyrido[4,3-d]pyrimidine]",2.8 nM
2,"Nc1c(Cl)cc(Cl)c(F)c1-c1ncc2c(N3C[C@H]4CC[C@@H](C3)N4)nc(OCC34CCCN3CCC4)nc2c1F [Example 266, 2-(4-((1R,5S)-3,8-diazabicyclo[3.2.1]octan-3-yl)-8-fluoro-2-((hexahydro-1H-pyrrolizin-7a-yl)methoxy)pyrido[4,3-d]pyrimidin-7-yl)-4,6-dichloro-3-fluoroaniline]",278 nM
3,"N#Cc1cccc2cccc(-c3ncc4c(N5C[C@H]6CC[C@@H](C5)N6)nc(OCC56CCCN5CCC6)nc4c3F)c12 [Example 198, 8-(4-((1R,5S)-3,8-diazabicyclo[3.2.1]octan-3-yl)-8-fluoro-2-((tetrahydro-1H-pyrrolizin-7a(5H)-yl)methoxy)pyrido[4,3-d]pyrimidin-7-yl)-1-naphthonitrile]",20.3 nM
4,"Cc1ccccc1-c1ncc2c(N3C[C@H]4CC[C@@H](C3)N4)nc(OCC34CCCN3CCC4)nc2c1F [Example 272, 4-((1R,5S)-3,8-diazabicyclo[3.2.1]octan-3-yl)-8-fluoro-2-((hexahydro-1H-pyrrolizin-7a-yl)methoxy)-7-(o-tolyl)pyrido[4,3-d]pyrimidine]",1180 nM
5,"CCc1cccc2cc(O)cc(-c3ncc4c(N5C[C@H]6CC[C@@H](C5)N6)ncnc4c3F)c12 [Example 449, 4-(4-((1R,5S)-3,8-diazabicyclo[3.2.1]octan-3-yl)-8-fluoropyrido[4,3-d]pyrimidin-7-yl)-5-ethylnaphthalen-2-ol]",71 nM
6,"Fc1c(-c2cccc3scnc23)ncc2c(N3C[C@H]4CC[C@@H](C3)N4)nc(OCC34CCCN3CCC4)nc12 [Example 454, 4-(4-((1R,5S)-3,8-diazabicyclo[3.2.1]octan-3-yl)-8-fluoro-2-((hexahydro-1H-pyrrolizin-7a-yl)methoxy)pyrido[4,3-d]pyrimidin-7-yl)benzo[d]thiazole]",295 nM
7,"CC1(C)CN2C[C@H](F)CC2(COc2nc(N3CC4CCC(C3)N4)c3cnc(-c4cccc5cccc(Cl)c45)c(F)c3n2)C1 (mixture of isomers) [Example 325, 4-((1R,5S)-3,8-diazabicyclo[3.2.1]octan-3-yl)-7-(8-chloronaphthalen-1-yl)-8-fluoro-2-((6-fluoro-2,2-dimethyltetrahydro-1H-pyrrolizin-7a(5H)-yl)methoxy)pyrido[4,3-d]pyrimidine (racemic, trans)]",141 nM
8,"O=C(OC[C@H]1CC[C@@]2(COc3nc(N4CC5CCC(C4)N5)c4cnc(-c5cccc6cccc(Cl)c56)c(F)c4n3)CCCN12)N1CCCC1 [Example 443, ((3R,7aR)-7a-(((4-(3,8-diazabicyclo[3.2.1]octan-3-yl)-7-(8-chloronaphthalen-1-yl)-8-fluoropyrido[4,3-d]pyrimidin-2-yl)oxy)methyl)hexahydro-1H-pyrrolizin-3-yl)methyl pyrrolidine-1-carboxylate]",3.2 nM
9,"CC(C)(O)c1ccccc1-c1ncc2c(N3CC4CCC(C3)N4)nc(OC[C@@]34CCCN3C[C@H](F)C4)nc2c1F (stereo in doubt) [Example 402, 2-(2-(4-((1R,5S)-3,8-diazabicyclo[3.2.1]octan-3-yl)-8-fluoro-2-((2-fluorotetrahydro-1H-pyrrolizin-7a(5H)-yl)methoxy)pyrido[4,3-d]pyrimidin-7-yl)phenyl)propan-2-ol]",8020 nM
10,"Fc1ccc2cccc(-c3ncc4c(N5C[C@H]6CC[C@@H](C5)N6)nc(OCC56CCCN5CCC6)nc4c3F)c2c1 [Example 460, 4-((1R,5S)-3,8-diazabicyclo[3.2.1]octan-3-yl)-8-fluoro-7-(7-fluoronaphthalen-1-yl)-2-((hexahydro-1H-pyrrolizin-7a-yl)methoxy)pyrido[4,3-d]pyrimidine]",0.027 nM
11,"CN1CC[C@H](Oc2nc(N3C[C@H]4CC[C@@H](C3)N4)c3cnc(-c4cccc5cccc(Cl)c45)c(F)c3n2)C1 [Example 359, 4-((1R,5S)-3,8-diazabicyclo[3.2.1]octan-3-yl)-7-(8-chloronaphthalen-1-yl)-8-fluoro-2-(((S)-1-methylpyrrolidin-3-yl)oxy)pyrido[4,3-d]pyrimidine]",1640 nM
12,"CN1CCC[C@H]1COc1nc(N2CC3C[C@@H](O)C(C2)N3)c2cnc(-c3cc(O)cc4ccccc34)c(F)c2n1 (stereo partly drawn) [Example 31, 3-(8-fluoro-7-(3-hydroxynaphthalen-1-yl)-2-(((S)-1-methylpyrrolidin-2-yl)methoxy)pyrido[4,3-d]pyrimidin-4-yl)-3,8-diazabicyclo[3.2.1]octan-6-ol]",1.6 nM
13,"O[C@@H]1C[C@@H]2CN(c3nc(OCCc4nccn4CF)nc4c(F)c(-c5cccc6cccc(Cl)c56)ncc34)C[C@H]1N2 [Example 170, (1R,5R,6R)-3-(7-(8-chloronaphthalen-1-yl)-8-fluoro-2-(2-(1-(fluoromethyl)-1H-imidazol-2-yl)ethoxy)pyrido[4,3-d]pyrimidin-4-yl)-3,8-diazabicyclo[3.2.1]octan-6-ol]",842 nM
14,"Fc1c(-c2cccc3cccc(Cl)c23)ncc2c(N3C[C@H]4CC[C@@H](C3)N4)nc(OCCC3CC(F)(F)C3)nc12 [Example 129, 4-((I R,5S)-3,8-diazabicyclo[3.2.1]octan-3-yl)-7-(8-chloronaphthalen-1-yl)-2-(2-(3,3-difluorocyclobutyl)ethoxy)-8-fluoropyrido[4,3-d]pyrimidine]",4090 nM
15,"CN1CCCC1(CO)COc1nc(N2C[C@H]3CC[C@@H](C2)N3)c2cnc(-c3cccc4ccccc34)c(F)c2n1 (stereo partly drawn) [Example 323, (2-(((4-((1R,5S)-3,8-diazabicyclo[3.2.1]octan-3-yl)-8-fluoro-7-(naphthalen-1-yl)pyrido[4,3-d]pyrimidin-2-yl)oxy)methyl)-1-methylpyrrolidin-2-yl)methanol]",1690 nM
16,"C#Cc1cccc2cc(O)cc(-c3ncc4c(N5C[C@H]6CC[C@@H](C5)N6)ncnc4c3F)c12 [Example 244, 4-(4-((1R,5S)-3,8-diazabicyclo[3.2.1]octan-3-yl)-8-fluoropyrido[4,3-d]pyrimidin-7-yl)-5-ethynylnaphthalen-2-ol]",4.2 nM
17,"Fc1c(-c2cccc3cccc(-c4c[nH]nn4)c23)ncc2c(N3C[C@H]4CC[C@@H](C3)N4)nc(OCC34CCCN3CCC4)nc12 [Example 180, 7-(8-(1H-1,2,3-triazol-4-yl)naphthalen-1-yl)-4-((1R,5S)-3,8-diazabicyclo[3.2.1]octan-3-yl)-8-fluoro-2-((hexahydro-1H-pyrrolizin-7a-yl)methoxy)pyrido[4,3-d]pyrimidine]",76.1 nM
18,"CN(C)c1ccccc1-c1ncc2c(N3C[C@H]4CC[C@@H](C3)N4)nc(OCC34CCCN3CCC4)nc2c1F [Example 296, 2-(4-((1R,5S)-3,8-diazabicyclo[3.2.1]octan-3-yl)-8-fluoro-2-((hexahydro-1H-pyrrolizin-7a-yl)methoxy)pyrido[4,3-d]pyrimidin-7-yl)-N,N-dimethylaniline]",112 nM
19,"CSc1ccccc1-c1ncc2c(N3C[C@H]4CC[C@@H](C3)N4)nc(OCC34CCCN3CCC4)nc2c1F [Example 329, 4-((1R,5S)-3,8-diazabicyclo[3.2.1]octan-3-yl)-8-fluoro-7-(2-(methylthio)phenyl)-2-((tetrahydro-1H-pyrrolizin-7a(5H)-yl)methoxy)pyrido[4,3-d]pyrimidine]",202 nM
20,"Fc1c(-c2cccc(Cl)c2OC(F)(F)F)ncc2c(N3CC4CCC(C3)N4)nc(OCC34CCCN3CCC4)nc12 [Example 230, 4-((1R,5S)-3,8-diazabicyclo[3.2.1]octan-3-yl)-7-(3-chloro-2-(trifluoromethoxy)phenyl)-8-fluoro-2-((tetrahydro-1H-pyrrolizin-7a(5H)-yl)methoxy)pyrido[4,3-d]pyrimidine bis(2,2,2-trifluoroacetate]",1430 nM
21,"CCc1ccccc1-c1ncc2c(N3C[C@H]4CC[C@@H](C3)N4)nc(OCC34CCCN3CCC4)nc2c1F [Example 295, 4-((1R,5S)-3,8-diazabicyclo[3.2.1]octan-3-yl)-7-(2-ethylphenyl)-8-fluoro-2-((hexahydro-1H-pyrrolizin-7a-yl)methoxy)pyrido[4,3-d]pyrimidine]",192 nM
22,"CC1(c2ccccc2-c2ncc3c(N4C[C@H]5CC[C@@H](C4)N5)nc(OCC45CCCN4CCC5)nc3c2F)CC1 [Example 305, 4-((1R,5S)-3,8-diazabicyclo[3.2.1]octan-3-yl)-8-fluoro-2-((hexahydro-1H-pyrrolizin-7a-yl)methoxy)-7-(2-(1-methylcyclopropyl)phenyl)pyrido[4,3-d]pyrimidine]",367 nM
23,"Fc1c(-c2cccc3cccc(Cl)c23)ncc2c(N3C[C@H]4CC[C@@H](C3)N4)nc(OCc3cccn4ccnc34)nc12 [Example 150, 4-((1R,5S)-3,8-diazabicyclo[3.2.1]octan-3-yl)-7-(8-chloronaphthalen-1-yl)-8-fluoro-2-(imidazo[1,2-a]pyridin-8-ylmethoxy)pyrido[4,3-d]pyrimidine]",1980 nM
24,"Fc1c(-c2cccc(C(F)(F)F)c2C(F)(F)F)ncc2c(N3C[C@H]4CC[C@@H](C3)N4)nc(OCC34CCCN3CCC4)nc12 [Example 197, 4-((1R,5S)-3,8-diazabicyclo[3.2.1]octan-3-yl)-7-(2,3-bis(trifluoromethyl)phenyl)-8-fluoro-2-((tetrahydro-1H-pyrrolizin-7a(5H)-yl)methoxy)pyrido[4,3-d]pyrimidine]",99.9 nM
25,"CCc1cccc2cncc(-c3ncc4c(N5CC6CCC(C5)N6)nc(OCC56CCCN5C[C@H](F)C6)nc4c3F)c12 (mixture of isomers) [Example 324, 4-((1R,5S)-3,8-diazabicyclo[3.2.1]octan-3-yl)-7-(5-ethylisoquinolin-4-yl)-8-fluoro-2-((2-fluorotetrahydro-1H-pyrrolizin-7a(5H)-yl)methoxy)pyrido[4,3-d]pyrimidine (racemic, trans)]",10.2 nM

# Source: patent publication US20230279025A1, “KRAS G12D INHIBITORS” (Mirati Therapeutics, Inc., priority 2020, published 2023)
